Our source for the IC50 and inhibition values is patent EP2253620B1, “SUBSTITUTED 3-CYANOQUINOLINES AS PROTEIN TYROSINE KINASES INHIBITORS” (Wyeth Holdings LLC, priority 1998, dated 2000).

In brackets after ≈: the same amount, converted by molar mass. Like-named read-outs stand apart in the source and are kept apart here. Bounds are passed on as bounds.

The target in experiment [1] is T1, epidermal growth factor receptor kinase (Homo sapiens, UniProt P00533).
T1 construct: containing the EGFR cDNA encoding amino acids 645 - 1186 preceded by Met-Ala-(His)6; made in house; host or cells: Sf9 insect cells, recombinant baculovirus vHcEGFR52
T1 sequence (P00533 669-1210): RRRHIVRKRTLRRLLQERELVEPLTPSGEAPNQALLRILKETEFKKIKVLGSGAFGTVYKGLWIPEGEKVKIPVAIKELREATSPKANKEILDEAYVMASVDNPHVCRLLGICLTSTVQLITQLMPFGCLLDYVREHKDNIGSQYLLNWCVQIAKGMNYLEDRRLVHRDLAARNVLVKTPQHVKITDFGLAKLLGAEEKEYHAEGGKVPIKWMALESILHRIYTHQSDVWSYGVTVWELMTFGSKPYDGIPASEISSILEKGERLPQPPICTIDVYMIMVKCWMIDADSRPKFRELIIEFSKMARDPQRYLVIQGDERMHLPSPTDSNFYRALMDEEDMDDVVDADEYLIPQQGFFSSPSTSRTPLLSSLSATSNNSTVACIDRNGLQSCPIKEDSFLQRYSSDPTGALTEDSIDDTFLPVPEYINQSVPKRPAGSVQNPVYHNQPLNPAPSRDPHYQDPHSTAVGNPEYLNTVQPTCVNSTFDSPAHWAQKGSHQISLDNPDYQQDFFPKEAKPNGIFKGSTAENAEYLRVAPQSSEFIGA
The experiment is described as follows: Inhibition of Epidermal Growth Factor Receptor Kinase (EGF-R) using recombinant enzyme. In kind it is biochemical. The conditions noted are these: averages of the individual determinations.
Description: Representative test compounds were evaluated for their ability to inhibit the phosphorylation of the tyrosine residue of a peptide substrate catalyzed by the enzyme epidermal growth factor receptor kinase. […] The enzyme used in this assay is the His-tagged cytoplasmic domain of EGFR. A recombinant baculovirus (vHcEGFR52) was constructed containing the EGFR cDNA encoding amino acids 645 - 1186 preceded by Met-Ala-(His)6. Sf9 cells in 100 mm plates were infected at an moi of 10 pfu/cell and cells were harvested 48 h post infection. A cytoplasmic extract was prepared using 1% Triton X-100 and applied to Ni-NTA column. After washing the column with 20 mM imidazole, HcEGFR was eluted with 250 mM imidazole (in 50 mM Na2HPO4, pH 8.0, 300 mM NaCl). Fractions collected were dialyzed against 10 mM HEPES, pH 7.0, 50 mM NaCl, 10% glycerol, 1ug/mL antipain and leupeptin and 0.1 mM Pefabloc SC. The protein was frozen in dry ice/methanol and stored -70°C.
Test compounds were made into 10 mg/mL stock solutions in 100% dimethylsulfoxide (DMSO). Prior to experiment, stock solutions were diluted to 500 uM with 100% DMSO and then serially diluted to the desired concentration with HEPES buffer (30 mM HEPES pH 7.4).
For the enzyme reaction, 10 µL of each inhibitor (at various concentrations) were added to each well of a 96-well plate. To this was added 3 µL of enzyme (1:10 dilution in 10mM HEPES, pH 7.4 for final conc. of 1:120). This was allowed to sit for 10 min on ice and was followed by the addition of 5 µl peptide (80 µM final conc.), 10 µl of 4X Buffer (Table A), 0.25 µL ^33P-ATP and 12 µL H2O. The reaction was allowed to run for 90 min at room temperature and was followed by spotting the entire volume on to precut P81 filter papers. The filter discs were washed 2X with 0.5% phosphoric acid and radioactivity was measured using a liquid scintillation counter.
The % inhibition of the test compound was determined for at least three different concentrations and the IC50 value was evaluated from the dose response curve. […] CPM(control) is in units of counts per minute and was a number expressing the amount of radiolabled ATP (g-^33P) incorporated into the RR-SRC peptide substrate by the enzyme after 90 minutes at room temperature in the absence of test compound as measured by liquid scintillation counting. The CPM values were corrected for the background counts produced by ATP in the absence of the enzymatic reaction. The IC50 values in TABLE 1 are averages of the individual determinations.

A further experiment relates to SW620. The experiment is described as follows: Inhibition of Cancer Cell Growth as Measured by Cell Number. It is filed as cell-based, Human. The conditions noted are these: Homo sapiens, SW-620; 48 hours exposure, Sulforhodamine B. The method, then:
(§1) Inhibition of Cancer Cell Growth as Measured bv Cell Number
(§2) Human tumor cell lines were plated in 96-well plates (250 µl/well, 1-6 x 10^4 cells/ml) in RPMI 1640 medium, containing 5% FBS (Fetal Bovine Serum). […] After 48 hours exposure to test compounds, cells were fixed with trichloroacetic acid, and stained with Sulforhodamine B. After washing with trichloroacetic acid, bound dye was solubilized in 10 mM Tris base and optical density was determined using plate reader. Under conditions of the assay the optical density is proportional to the number of cells in the well. […] The test procedure is described in details by Philip Skehan et. al, J.Natl. Canc. Inst., 82, 1107-1112 (1990). […] Information about some of the cell lines used in these test procedures is available from the American Type Tissue Collection: Cell Lines and Hybridomas, 1994 Reference Guide, 8th Edition.

Another experiment deals with MDAMB435. Described as above. In kind it is cell-based, Human. The conditions noted are these: Homo sapiens, MDA-MB-435; 48 hours exposure, Sulforhodamine B. The protocol: as §1, §2
For the next experiment, the system named is SKBR3. The experiment is described as above. It is filed as cell-based, Human. The settings on record: Homo sapiens, SK-BR-3; 48 hours exposure, Sulforhodamine B. The protocol: as §1, §2
Another experiment deals with A431. Described as above. In kind it is cell-based, Human. The settings on record: Homo sapiens, A-431; 48 hours exposure, Sulforhodamine B. The protocol:
as §1, §2

The target in another experiment is Mek and Erk (Homo sapiens, UniProt P28482+Q02750). The experiment is described as follows: Mitogen Activated Protein Kinase (MAPK) coupled assay (Mek-Erk). In kind it is biochemical. The method, then:
Mitogen Activated Protein Kinase (MAPK) Assay
To evaluate inhibitors of the MAP (mitogen activated protein) kinase a two component coupled standard pharmacological test procedure, which measures phosphorylation of a serine/threonine residue in an appropriate sequence in the substrate in the presence and absence of a putative inhibitor, was used. Recombinant human MEK 1 (MAPKK) was first used to activate recombinant human ERK2 (MAPK) and the activated MAPK (ERK) was incubated with substrate (MBP peptide or MYC peptide) in the presence of ATP, Mg^+2 and radiolabeled ^33P ATP. The phosphorylated peptide was captured on a P 81 phosphocellulose filter (paper filter or embedded in microtiter plate) washed and counted by scintillation methods.
The peptide substrates used in the assay are MBP, peptide substrate ([…]), or synthetic Myc substrate, ([…]•5 TFA. The recombinant enzymes used were prepared as GST fusion proteins of human ERK 2 and human MEK 1. Inhibitor samples were prepared as 10X stocks in 10% DMSO and an appropriate aliquot was used to deliver either 10 ug/ml for a single point screening dose or 100, 10, 1, and 0.1 uM final concentration for a dose response curve. Final DMSO concentrations were less than or equal to 1%.
The reaction was run as follows in 50 mM Tris kinase buffer, pH 7.4 in a reaction volume of 50 ul. The appropriate volume of kinase buffer and inhibitor sample was added to the tube. Appropriate dilution of enzyme was delivered to give 2-5 ug recombinant MAPK (Erk ) per tube. The inhibitor was incubated with MAPK (Erk) for 30 min at 0 deg. C. Recombinant Mek (MAPKK) ( 0.5-2.5 ug) or fully activated Mek (0.05-0.1 units) was added to activate the Erk and incubated for 30 min at 30° C. Then substrate and gamma ^33P ATP was were added to give a final concentration of 0.5- 1 mM MBPP or 250-500 uM Myc; 0.2-0.5 uCi gamma P 33 ATP/tube; 50 µM ATP final concentration. Samples were incubated at 30°C for 30 minutes and the reaction was stopped by adding 25 µl of ice cold 10 %TCA .After samples were chilled on ice for 30 min, 20 µl of sample was transferred onto P 81 phosphocellulose filter paper or appropriate MTP with embedded P 81 filter. Filter papers or MTP were washed 2 times with a large volume of 1% acetic acid, then 2 times with water. The filters or MTP were briefly air dried before addition of scintillant and samples were counted in the appropriate scintillation counter set up for reading ^33P isotope. Samples included a positive control (activated enzyme plus substrate); a no enzyme control; a no substrate control; samples with different concentrations of putative inhibitor; and samples with reference inhibitors (other active compounds or non-specific inhibitors such as staurosporine or K252 B).
The raw data was captured as cpm. Sample replicates were averaged and corrected for background count. Mean cpm data was tabulated by group and % inhibition by a test compound was calculated as (corrected cpm control- corrected. cpm sample/control) X 100 = % inhibition. […] The results obtained for representative compounds of this invention are listed in TABLE 2 where there may be separate entries for the same compound; this is an indication that the compound was evaluated more than one time.

A further experiment addresses erbB2 (Homo sapiens, UniProt P04626). The experiment is described as follows: erbB2 inhibition at a single concentration. In kind it is biochemical. The conditions noted are these: read-out: erbB2 % Inh 2 µg/mL.
In experiment [2] the target is Epithelial Cell Kinase (ECK) (Homo sapiens, UniProt P29317). The experiment is described as follows: Inhibition of Epithelial Cell Kinase (ECK) tyrosine kinase activity. It is filed as biochemical. The protocol:
In this standard pharmacological test procedure, a biotinylated peptide substrate is first immobilized on neutravidin-coated microtiter plates. The test drug, the Epithelial Cell Kinase (ECK), Mg^++, sodium vanadate (a protein tyrosine phosphatase inhibitor), and an appropriate buffer to maintain pH (7.2) are then added to the immobilized substrate-containing microtiter wells. ATP is then added to initiate phosphorylation. After incubation, the assay plates are washed with a suitable buffer leaving behind phosphorylated peptide which is exposed to horse radish peroxidase (HRP)-conjugated anti-phosphotyrosine monoclonal antibody. The antibody-treated plates are washed again and the HRP activity in individual wells is quantified as a reflection of degree of substrate phosphorylation. […] Multiple entries for a given compound indication it was tested multiple times.

Setting [3] is: coupled MEK 1 / ERK2; separate entries = separate tests; read-out: Mek and Erk.

Sequence of erbB2 (P04626 23-1255): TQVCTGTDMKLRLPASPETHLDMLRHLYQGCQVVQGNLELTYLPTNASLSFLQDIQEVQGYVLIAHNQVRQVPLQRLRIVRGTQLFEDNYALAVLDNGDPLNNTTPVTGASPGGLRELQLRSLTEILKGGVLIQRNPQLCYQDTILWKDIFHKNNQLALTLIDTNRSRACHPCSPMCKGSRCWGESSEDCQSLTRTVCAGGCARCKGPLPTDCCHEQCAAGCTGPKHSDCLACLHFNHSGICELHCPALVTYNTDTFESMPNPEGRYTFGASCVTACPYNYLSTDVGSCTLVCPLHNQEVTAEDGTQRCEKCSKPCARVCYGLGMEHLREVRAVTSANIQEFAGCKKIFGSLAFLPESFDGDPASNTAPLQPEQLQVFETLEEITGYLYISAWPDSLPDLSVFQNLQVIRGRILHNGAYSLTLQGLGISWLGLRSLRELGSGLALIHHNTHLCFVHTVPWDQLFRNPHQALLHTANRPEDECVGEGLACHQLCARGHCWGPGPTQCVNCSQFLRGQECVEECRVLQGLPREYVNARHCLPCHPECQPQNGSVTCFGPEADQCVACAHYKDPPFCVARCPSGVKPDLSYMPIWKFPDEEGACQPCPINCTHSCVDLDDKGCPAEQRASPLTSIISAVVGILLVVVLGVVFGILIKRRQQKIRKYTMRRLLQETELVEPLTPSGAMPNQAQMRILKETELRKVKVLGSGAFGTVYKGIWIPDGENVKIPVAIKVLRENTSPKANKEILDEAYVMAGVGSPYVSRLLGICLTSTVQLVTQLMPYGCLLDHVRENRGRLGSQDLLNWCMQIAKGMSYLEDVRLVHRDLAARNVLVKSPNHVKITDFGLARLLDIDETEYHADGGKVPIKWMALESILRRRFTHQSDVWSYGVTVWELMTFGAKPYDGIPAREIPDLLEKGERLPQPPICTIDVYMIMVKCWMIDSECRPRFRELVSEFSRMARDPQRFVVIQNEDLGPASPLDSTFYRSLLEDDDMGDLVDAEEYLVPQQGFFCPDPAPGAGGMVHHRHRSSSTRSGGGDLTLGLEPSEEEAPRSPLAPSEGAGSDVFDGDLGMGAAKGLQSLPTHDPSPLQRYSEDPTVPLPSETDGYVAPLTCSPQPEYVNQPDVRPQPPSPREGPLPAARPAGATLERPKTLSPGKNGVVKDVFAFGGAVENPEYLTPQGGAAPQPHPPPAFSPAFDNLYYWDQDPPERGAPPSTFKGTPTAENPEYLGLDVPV
Sequence of Mek and Erk (Q02750 whole entry): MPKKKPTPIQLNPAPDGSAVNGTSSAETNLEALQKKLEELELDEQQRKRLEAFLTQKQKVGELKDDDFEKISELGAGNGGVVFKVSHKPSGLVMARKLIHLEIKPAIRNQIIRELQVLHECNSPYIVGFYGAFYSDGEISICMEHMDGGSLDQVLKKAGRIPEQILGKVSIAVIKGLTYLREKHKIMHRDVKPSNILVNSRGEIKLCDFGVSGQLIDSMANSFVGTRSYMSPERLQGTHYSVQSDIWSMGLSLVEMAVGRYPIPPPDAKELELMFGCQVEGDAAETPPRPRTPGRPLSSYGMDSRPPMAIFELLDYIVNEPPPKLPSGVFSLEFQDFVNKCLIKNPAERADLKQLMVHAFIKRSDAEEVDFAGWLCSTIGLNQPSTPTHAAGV
Sequence of Mek and Erk (P28482 2-360): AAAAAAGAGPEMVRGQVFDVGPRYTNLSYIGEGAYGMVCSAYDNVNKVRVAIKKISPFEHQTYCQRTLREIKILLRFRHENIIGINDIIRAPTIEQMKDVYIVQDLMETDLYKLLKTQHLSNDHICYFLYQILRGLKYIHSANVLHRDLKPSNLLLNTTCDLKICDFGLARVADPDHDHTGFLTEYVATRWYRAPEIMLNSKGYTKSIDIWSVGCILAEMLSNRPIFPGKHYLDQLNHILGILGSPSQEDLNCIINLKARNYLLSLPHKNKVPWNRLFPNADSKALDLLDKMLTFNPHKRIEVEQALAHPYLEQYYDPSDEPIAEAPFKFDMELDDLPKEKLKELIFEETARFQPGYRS
Sequence of Epithelial Cell Kinase (ECK) (P29317 24-976, species assumed): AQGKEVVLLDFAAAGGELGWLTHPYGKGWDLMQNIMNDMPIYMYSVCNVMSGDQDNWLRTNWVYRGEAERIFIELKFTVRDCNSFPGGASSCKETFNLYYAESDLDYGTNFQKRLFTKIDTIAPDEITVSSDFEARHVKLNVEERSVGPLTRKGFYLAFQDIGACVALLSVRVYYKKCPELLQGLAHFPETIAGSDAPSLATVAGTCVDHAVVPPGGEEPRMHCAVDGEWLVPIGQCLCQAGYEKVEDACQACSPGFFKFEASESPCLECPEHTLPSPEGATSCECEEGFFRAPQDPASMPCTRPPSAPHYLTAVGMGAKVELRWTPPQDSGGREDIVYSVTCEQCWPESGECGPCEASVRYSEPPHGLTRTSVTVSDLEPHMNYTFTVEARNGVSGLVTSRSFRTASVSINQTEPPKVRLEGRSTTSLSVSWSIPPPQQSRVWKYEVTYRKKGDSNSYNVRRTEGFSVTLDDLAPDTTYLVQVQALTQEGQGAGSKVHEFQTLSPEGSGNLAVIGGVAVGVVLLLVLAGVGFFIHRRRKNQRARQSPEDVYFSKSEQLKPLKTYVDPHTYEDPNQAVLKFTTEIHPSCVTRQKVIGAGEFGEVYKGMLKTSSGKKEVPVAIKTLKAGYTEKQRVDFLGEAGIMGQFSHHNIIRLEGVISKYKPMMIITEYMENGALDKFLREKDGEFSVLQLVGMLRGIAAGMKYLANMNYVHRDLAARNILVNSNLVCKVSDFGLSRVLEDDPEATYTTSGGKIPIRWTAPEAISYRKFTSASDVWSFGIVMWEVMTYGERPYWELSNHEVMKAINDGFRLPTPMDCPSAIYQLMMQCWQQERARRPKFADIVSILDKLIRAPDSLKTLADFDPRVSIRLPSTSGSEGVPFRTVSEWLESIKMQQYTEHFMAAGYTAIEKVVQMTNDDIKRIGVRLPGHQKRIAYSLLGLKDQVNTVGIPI

Consider `C=CCN(CC=C)CC=CC(=O)Nc1cc2c(Nc3ccc(F)c(Cl)c3)c(C#N)cnc2cc1OC` [Example 103, 4-Diallylamino-but-2-enoic acid [4-(3-chloro-4-fluoro-phenylamino)-3cyano-7-methoxy-quinolin-6-yl]-amide], for which the IC50 in experiment [1] was 8 nM.

In the case of `COCCN(C)CC#CC(=O)Nc1ccc2ncc(C#N)c(Nc3cccc(Br)c3)c2c1` [Example 76, N-[4-[(3-Bromophenyl)amino]-3-cyano-6-quinolinyl]-4-(N-methoxyethyl-N-methylamino)-2-butynamide], the IC50 in experiment [1] was 10 nM; in the experiment on SW620 it was 0.239 µg/mL (≈ 0.485 µM); in the experiment on MDAMB435, 0.284 µg/mL (≈ 0.577 µM); in the experiment with SKBR3, 0.031 µg/mL (≈ 0.063 µM); with A431 it was 0.05 µg/mL (≈ 0.102 µM); on Mek and Erk (setting [3]) it was over 100000 nM. In addition, on erbB2, the inhibition at 2 µg/mL came to 96%.

On to `COc1cc2ncc(C#N)c(Nc3ccc(F)c(Cl)c3)c2cc1NC(=O)C=CCN1CCN(CCO)CC1` [Example 108, 4-[4-(2-Hydroxy-ethyl)-piperazin-1-yl]-but-2-enoic acid [4-(3-chloro-4-fluoro-phenylamino)-3-cyano-7-methoxy-quinolin-6-yl]-amide], for which the IC50 in experiment [1] was 26 nM.

Turning to `COCCN(CC#CC(=O)Nc1ccc2ncc(C#N)c(Nc3cccc(Br)c3)c2c1)CCOC` [Example 75, N-[4-[(3-Bromophenyl)amino]-3-cyano-6-quinolinyl]-4-(bis-(2-methoxyethyl)amino)-2-butynamide], the IC50 in experiment [1] came to 0.4 nM; in the experiment with SW620, 0.5 µg/mL (≈ 0.932 µM); in the experiment on MDAMB435, 0.2 µg/mL (≈ 0.373 µM); in the experiment with SKBR3 it was 0.04 µg/mL (≈ 0.0746 µM); with A431, 0.1 µg/mL (≈ 0.186 µM); on Mek and Erk (setting [3]), 100000 nM.

For `COc1cc2ncc(C#N)c(Nc3ccc(F)c(Cl)c3)c2cc1NC(=O)C=CCN(CCO)CCO` [Example 106, 4-[Bis-(2-hydroxy-ethyl)-amino]-but-2-enoic acid [4-(3-chloro-4-fluoro-phenylamino)-3-cyano-7-methoxy-quinolin-6-yl]-amide], the IC50 in experiment [1] was 13 nM.

As for `COC[C@@H]1CCCN1CC#CC(=O)Nc1ccc2ncc(C#N)c(Nc3cccc(Br)c3)c2c1` [Example 79, 4-((2S)-2-Methoxymethylpyrrolidin-1-yl)but-2-ynoic Acid [4-(3-bromophenylamino)-3-cyanquinolin-6-yl]amide], the IC50 in experiment [1] was 0.36 nM; in the experiment on SW620 it was 0.1 µg/mL (≈ 0.193 µM); with MDAMB435, 0.3 µg/mL (≈ 0.579 µM); with SKBR3, 0.01 µg/mL (≈ 0.0193 µM); with A431, 0.04 µg/mL (≈ 0.0772 µM).

Turning to `COc1cc2ncc(C#N)c(Nc3ccc(F)c(Cl)c3)c2cc1NC(=O)C=CCN(CC(C)O)CC(C)O` (stereo not shown) [Example 115, 4-[Bis-(2-hydroxy-propyl)-amino]-but-2-enoic acid [4-(3-chloro-4-fluoro-phenylamino)-3-cyano-7-methoxy-quinolin-6-yl]-amide], the IC50 in experiment [1] is 5 nM.

Take `CN1CCC=C(C(=O)Nc2ccc3ncc(C#N)c(Nc4cccc(Br)c4)c3c2)C1` [Example 78, 1-Methyl-1,2,5,6-tetrahydro-pyridine-3-carboxylic acid [4-(3-bromo-phenylamino)-3-cyano-quinolin-6-yl]-amide]: the IC50 in the experiment with SW620 was over 5 µg/mL; in the experiment on MDAMB435, 3.19 µg/mL (≈ 6.91 µM); in the experiment on SKBR3, 1.5 µg/mL (≈ 3.23 µM); with A431, 0.369 µg/mL (≈ 0.798 µM); on Mek and Erk (setting [3]) it was 40000 nM; in experiment [2], over 21300 nM. Also, the inhibition at 2 µg/mL at erbB2 amounted to 53%.

Take `COc1cc2ncc(C#N)c(Nc3ccc(F)c(Cl)c3)c2cc1NC(=O)C=CCN1CCC(O)(O)CC1` [Example 119, 4-(4,4-Dihydroxy-piperidin-1-yl)-but-2-enoic acid [4-(3-chloro-4-fluoro-phenylamino)-3-cyano-7-methoxy-quinolin-6-yl]-amide]: the IC50 in experiment [1] came to 0.05 nM.

For `COc1cc2ncc(C#N)c(Nc3ccc(F)c(Cl)c3)c2cc1NC(=O)C=CC[n+]1cscc1C` [Example 96, 3-{3-[4-(3-Chloro-4-fluoro-phenylamino)-3-cyano-7-methoxy-quinolin-6-ylcarbamoyl]-allyl}-4-methyl-thiazol-3-ium bromide], the IC50 in experiment [1] is 100 nM.

Regarding `COCOCC#CC(=O)Nc1ccc2ncc(C#N)c(Nc3cccc(Br)c3)c2c1` [Example 74, 4-Methoxymethoxy-but-2-ynoic acid [4-(3-bromo-phenylamino)-3-cyano-quinolin-6-yl]-amide], the IC50 was over 100000 nM at Mek and Erk (setting [3]); over 43000 nM in experiment [2]. For the same molecule, the inhibition at 2 µg/mL at erbB2 amounted to 95%.

For the molecule `COc1cc2ncc(C#N)c(Nc3ccc(F)c(Cl)c3)c2cc1NC(=O)C=CC[n+]1csc(C)c1` [Example 95, 3-{3-[4-(3-Chloro-4-fluoro-phenylamino)-3-cyano-7-methoxy-quinolin-6-ylcarbamoyl]-allyl}-5-methyl-thiazol-3-ium bromide], in experiment [1], the IC50 amounted to 5 nM.

Take `COc1cc2ncc(C#N)c(Nc3ccc(F)c(Cl)c3)c2cc1NC(=O)C=CCN1CCSCC1` [Example 107, 4-Thiomorpholin-4-yl-but-2-enoic acid [4-(3-chloro-4-fluoro-phenylamino)-3-cyano-7-methoxy-quinolin-6-yl]-amide]: the IC50 in experiment [1] was determined as 500 nM.

In the case of `CCOc1c(Nc2ccc3ncc(C#N)c(Nc4cccc(Br)c4)c3c2)c(=O)c1=O` [Example 85, 4-(3-Bromo-phenylamino)-6-(2-ethoxy-3,4-dioxo-cyclobut-1-enylamino)-quinoline-3-carbonitrile], the IC50 was 18 µg/mL (≈ 38.8 µM) with SW620; 27.6 µg/mL (≈ 59.6 µM) in the experiment with MDAMB435; 1.74 µg/mL (≈ 3.76 µM) in the experiment with SKBR3; 4.91 µg/mL (≈ 10.6 µM) in the experiment on A431; 1800 nM at Mek and Erk (read-out: Mek and Erk; coupled MEK 1 / ERK2; separate entries = separate tests). Moreover, the inhibition at 2 µg/mL on erbB2 came out at 87%.

As to `COc1cc2ncc(C#N)c(Nc3ccc(F)c(Cl)c3)c2cc1NC(=O)C=CCN1CCOCCOCCOCC1` [Example 109, 4-(1,4,7-Trioxa-10-aza-cyclododec-10-yl)-but-2-enoic acid [4-(3-chloro-4-fluoro-phenylamino)-3-cyano-7-methoxy-quinolin-6-yl]-amide], the IC50 in experiment [1] stood at 7 nM.
